# Patent US12414990B2, “Use of HLA-A*11:01-restricted hepatitis B virus (HBV) peptides for identifying HBV-specific CD8+ T cells” (AGENCY FOR SCIENCE, TECHNOLOGY AND RESEARCH, priority 2019, dated 2025)
# Key:
# [1] = system: HLA-A*11:01-restricted antigen-specific CD8+ T cells in patient's PBMC; test: Highly multiplexed combinatorial pMHC tetramer staining with mass cytometry (epitope mapping, frequency of antigen-specific CD8+ T cells)
# [2] = system: antigen-specific CD8+ T cells; test: High-dimensional phenotypic profiling of antigen-specific CD8+ T cells (t-SNE, Phenograph, One-SENSE, Scorpius); format: cell-based, human; details: ex vivo
# Description: Validated antigen-specific CD8+ T cells were exported individually from each donor for dimensionality reduction analysis. Detailed methodology for t-SNE and One-SENSE can be found elsewhere. Briefly, t-SNE and One-SENSE were performed using custom R scripts based on “flowCore” and “Rtsne” packages downloaded from The Comprehensive R Archive Network (CRAN). All data were transformed using the “logicleTransform” function and w=0.25, t=16409, m=4.5, a=0 as input parameters to roughly match scaling historically used in FlowJo. Cellular markers analyzed by t-SNE and One-SENSE were indicated (table S2). For One-SENSE, cellular markers in each T cell category (“Differentiation+TNFR”, “Exhaustion” and “Trafficking”) were subjectively assigned for categorical analysis. Aligned heatplots represent the distribution of marker positive cells in percentage on each “bin” on the axis (category) constructed by cells residing in small ranges of values. Positive population of markers was manually defined and markers of the same category were combined for each dimension using 250 bins.
# Logistic regression was performed using the drc R package (v 3.0.1) using a 3-parameters logistic model.
# [3] = Inactive Carrier (InA) CHB patients, patients with detected tetramer+ CD8+ T cells (frequency > 0.002%) / patients in the group, per epitope cluster
# [4] = patients with detected epitope-specific CD8+ T cells / patients tested, Immune Active (IA) group, Freq > 0.002%
# [5] = patients with detected epitope-specific CD8+ T cells / patients tested, Immune Tolerant (IT) group, Freq > 0.002%
# [6] = patients with detected epitope-specific CD8+ T cells / patients tested, Inactive Carrier (InA) group, Freq > 0.002%
# [7] = patients with detected epitope-specific CD8+ T cells / patients tested, acute resolved (R) group, Freq > 0.002%
# [8] = Immune Tolerant (IT) patients, donors with tetramer+ CD8+ T cell frequency > 0.002% / donors tested
# [9] = Immune Tolerant (IT) CHB patients, patients with detected tetramer+ CD8+ T cells (frequency > 0.002%) / patients in the group, per epitope cluster
# [10] = Immune Active (IA) patients, donors with tetramer+ CD8+ T cell frequency > 0.002% / donors tested
# [11] = Inactive Carrier (InA) patients, donors with tetramer+ CD8+ T cell frequency > 0.002% / donors tested
# [12] = acute resolved (R) patients, donors with tetramer+ CD8+ T cell frequency > 0.002% / donors tested
# [13] = Immune Active (IA) CHB patients, patients with detected tetramer+ CD8+ T cells (frequency > 0.002%) / patients in the group, per epitope cluster
# [14] = Acute resolved (R) patients, patients with detected tetramer+ CD8+ T cells (frequency > 0.002%) / patients in the group, per epitope cluster
substance,measurement,setting,value
QQGSMASGK,Hits (Freq > 0.002%) InA,[1]; [3],1/13
GTSGSPIVNR,Hits (Freq > 0.002%) IA,[1]; [4],4/12
same,Hits (Freq > 0.002%) IT,[1]; [5],5/8
same,Hits (Freq > 0.002%) InA,[1]; [6],4/13
same,Hits (Freq > 0.002%) R,[1]; [7],4/12
KTYGRKLHLY,Hits (Freq > 0.002%) IT,[1]; [8],1/8
same,Average of hits (%) IT,"[1]; Immune Tolerant (IT) patients, mean frequency of antigen-specific CD8+ T cells among hits",0.002007%
GSCIQSQLRK,Hits (Freq > 0.002%) IT,[1]; [9],1/8
PTYKAFLSK,Hits (Freq > 0.002%) IA,[1]; [10],2/12
same,Hits (Freq > 0.002%) IT,[1]; [8],1/8
same,Hits (Freq > 0.002%) InA,[1]; [11],2/13
same,Hits (Freq > 0.002%) R,[1]; [12],1/12
TSGSPIIDK,Hits (Freq > 0.002%) IT,[1]; [5],1/8
STFHQALLDPR,Hits (Freq > 0.002%) IA,[1]; [13],1/12
MATYGWNLVK,Hits (Freq > 0.002%) IA,[1]; [4],1/12
same,Hits (Freq > 0.002%) InA,[1]; [6],1/13
STNRQSGRK,Hits (Freq > 0.002%) R,[1]; [14],1/12
same,Hits (Freq > 0.002%) IA,[1]; [13],7/12
same,Hits (Freq > 0.002%) IT,[1]; [9],5/8
same,Hits (Freq > 0.002%) InA,[1]; [3],4/13
VSAISSILSK,Hits (Freq > 0.002%) IA,[1]; [13],1/12
SSAGPCALR,Hits (Freq > 0.002%) InA,[1]; [11],2/13
KTFVDLMRR,Hits (Freq > 0.002%) IA,[1]; [4],1/12
"HBV-C-195v2: HBV core epitope, cluster 283, 1 unique peptide (RSQSPRRRRSK; Hepatitis B virus)",phenotype of tetramer-stained epitope-specific CD8+ T cells,[2],mostly naïve-like phenotype
same,detection / frequency of epitope-specific CD8+ T cells across patient groups,"[1]; ex vivo PBMC, groups IT, IA, InA, R, HD, CB",highest frequencies observed
VTKYLPLDK,Hits (Freq > 0.002%) R,[1]; [14],2/12
same,Hits (Freq > 0.002%) IT,[1]; [9],1/8
same,Hits (Freq > 0.002%) InA,[1]; [3],3/13
YVSLLLLYK,Hits (Freq > 0.002%) IA,[1]; [10],2/12
same,Hits (Freq > 0.002%) IT,[1]; [8],2/8
same,Hits (Freq > 0.002%) InA,[1]; [11],3/13
same,Hits (Freq > 0.002%) R,[1]; [12],1/12
PSFPHIHLK,Hits (Freq > 0.002%) R,[1]; [14],1/12
same,Hits (Freq > 0.002%) IT,[1]; [9],1/8
QSSGILSR,Hits (Freq > 0.002%) R,[1]; [14],1/12
SSCSSCPLSK,Hits (Freq > 0.002%) IT,[1]; [5],6/8
same,Hits (Freq > 0.002%) R,[1]; [7],8/12
IVQKIKMCFRK,Hits (Freq > 0.002%) IA,[1]; [10],1/12
same,Hits (Freq > 0.002%) IT,[1]; [8],1/8
same,Hits (Freq > 0.002%) R,[1]; [12],2/12
LQAGFFLLTK,Hits (Freq > 0.002%) IA,[1]; [13],1/12
LLYKTFGRK,Hits (Freq > 0.002%) IA,[1]; [10],5/12
same,Hits (Freq > 0.002%) IT,[1]; [8],4/8
same,Hits (Freq > 0.002%) InA,[1]; [11],5/13
same,Hits (Freq > 0.002%) R,[1]; [12],1/12
LTFGRETVLE,Hits (Freq > 0.002%) InA,[1]; [6],1/13
same,Hits (Freq > 0.002%) R,[1]; [7],1/12
SQIGAGVYK,Hits (Freq > 0.002%) IA,[1]; [4],3/12
same,Hits (Freq > 0.002%) IT,[1]; [5],1/8
same,Hits (Freq > 0.002%) InA,[1]; [6],2/13
same,Hits (Freq > 0.002%) R,[1]; [7],1/12
STLPETAVVRR,Hits (Freq > 0.002%) IA,[1]; [10],4/12
same,Hits (Freq > 0.002%) InA,[1]; [11],7/13
same,Hits (Freq > 0.002%) R,[1]; [12],9/12
SSCLHQPAVRK,Hits (Freq > 0.002%) InA,[1]; [3],1/12
LSYLHFRK,Hits (Freq > 0.002%) R,[1]; [14],2/12
same,Hits (Freq > 0.002%) IA,[1]; [13],4/12
same,Hits (Freq > 0.002%) IT,[1]; [9],3/8
same,Hits (Freq > 0.002%) InA,[1]; [3],1/13
HTLWKAGILYK,Hits (Freq > 0.002%) R,[1]; [14],2/12
same,Hits (Freq > 0.002%) IA,[1]; [13],4/12
same,Hits (Freq > 0.002%) IT,[1]; [9],1/8
same,Hits (Freq > 0.002%) InA,[1]; [3],1/13
RVTGGVFLVDK,Hits (Freq > 0.002%) IA,[1]; [10],1/12
LVVDFSQFSR,Hits (Freq > 0.002%) IA,[1]; [10],9/12
same,Hits (Freq > 0.002%) IT,[1]; [8],5/8
same,Hits (Freq > 0.002%) InA,[1]; [11],9/13
same,Hits (Freq > 0.002%) R,[1]; [12],9/12
KTFDSEYVK,Hits (Freq > 0.002%) R,[1]; [7],1/12
AGFFLLTK,Hits (Freq > 0.002%) InA,[1]; [3],1/13
AMGDAGGYK,Hits (Freq > 0.002%) InA,[1]; [6],1/13
YVNVNMGLK,Hits (Freq > 0.002%) IA,[1]; [4],1/12
same,Hits (Freq > 0.002%) R,[1]; [7],1/12
TVNETRRLK,Hits (Freq > 0.002%) IA,[1]; [13],2/12
same,Hits (Freq > 0.002%) IT,[1]; [9],1/8
same,Hits (Freq > 0.002%) InA,[1]; [3],2/13
TVMDIISRR,Hits (Freq > 0.002%) IT,[1]; [5],2/8
SVVRRAFPH,Hits (Freq > 0.002%) IA,[1]; [10],3/12
same,Hits (Freq > 0.002%) IT,[1]; [8],1/8
same,Hits (Freq > 0.002%) InA,[1]; [11],2/13
QTSERHGDK,Hits (Freq > 0.002%) R,[1]; [14],1/12
same,Hits (Freq > 0.002%) InA,[1]; [3],1/13
SVQPTFSVQR,Hits (Freq > 0.002%) IA,[1]; [4],3/12
same,Hits (Freq > 0.002%) IT,[1]; [5],2/8
same,Hits (Freq > 0.002%) InA,[1]; [6],4/13
same,Hits (Freq > 0.002%) R,[1]; [7],1/12
TVRAFSRAYHHRINR,Hits (Freq > 0.002%) R,[1]; [7],1/12
ASCMGLIYNR,Hits (Freq > 0.002%) IT,[1]; [5],1/8
same,Hits (Freq > 0.002%) InA,[1]; [6],1/13
same,Hits (Freq > 0.002%) R,[1]; [7],1/12
LVFQTSER,Hits (Freq > 0.002%) R,[1]; [14],1/12
same,Hits (Freq > 0.002%) InA,[1]; [3],1/13
LSLGIHLNPNK,Hits (Freq > 0.002%) IA,[1]; [10],3/12
same,Hits (Freq > 0.002%) InA,[1]; [11],1/13
